Reference: ChEMBL document CHEMBL3351433, “Synthesis and evaluation of new 3-phenylcoumarin derivatives as potential antidepressant agents” (Bioorg Med Chem Lett, 2014)

How the values were obtained:
Mus musculus [1] = assay: Antidepressant activity in Swiss mouse assessed as reduction of immobility time at 0.5 mg/kg, ip after 30 mins by forced swimming test relative to vehicle-treated control; format: functional; set-up: scale not given: the % may be the effect or the level left; conditions: route intraperitoneal
[2] = Bioavailability in Swiss albino mouse at 10 mg/kg, ip; conditions: in vivo, intraperitoneal
[3] = Clearance in Swiss albino mouse at 10 mg/kg, ip; format: ADME, organism-based; set-up: dose 10 mg/kg, route intraperitoneal; conditions: in vivo
[4] = Terminal half life in Swiss albino mouse at 10 mg/kg, ip; format: ADME, organism-based; set-up: dose 10 mg/kg, route intraperitoneal; conditions: in vivo, read-out: beta t1/2 (converted)
[5] = Cmax in Swiss albino mouse at 10 mg/kg, ip; format: ADME, organism-based; set-up: dose 10 mg/kg, route intraperitoneal; conditions: in vivo
Mus musculus [6] = assay: Antidepressant activity in Swiss mouse assessed as reduction of immobility time at 0.25 mg/kg, ip after 30 mins by forced swimming test relative to vehicle-treated control; format: functional; set-up: scale not given: the % may be the effect or the level left; conditions: route intraperitoneal
Mus musculus [7] = assay: Antidepressant activity in Swiss mouse assessed as reduction of immobility time at 0.5 mg/kg, ip by tail suspension test relative to vehicle-treated control; format: functional; set-up: scale not given: the % may be the effect or the level left; conditions: route intraperitoneal
Mus musculus [8] = assay: Toxicity in Swiss mouse assessed as horizontal activity count at 0.5 mg/kg, ip after 30 mins measured for 120 mins by open field locomotor activity test; format: organism-based; set-up: dose 0.5 mg/kg, route intraperitoneal; conditions: in vivo
Mus musculus [9] = assay: Toxicity in Swiss mouse assessed as total distance travelled at 0.5 mg/kg, ip after 30 mins measured for 120 mins by open field locomotor activity test; format: organism-based; set-up: dose 0.5 mg/kg, route intraperitoneal; conditions: in vivo, 2 h
[10] = Clearance in Swiss albino mouse at 1 mg/kg, iv; format: ADME, organism-based; set-up: dose 1 mg/kg, route intravenous; conditions: in vivo
[11] = Tmax in Swiss albino mouse at 10 mg/kg, ip; format: ADME, organism-based; set-up: dose 10 mg/kg, route intraperitoneal; conditions: in vivo
Mus musculus [12] = assay: Volume of distribution in Swiss albino mouse at 10 mg/kg, ip; format: ADME, organism-based; set-up: dose 10 mg/kg, route intraperitoneal; conditions: in vivo
[13] = AUC (0 to infinity) in Swiss albino mouse at 1 mg/kg, iv; format: ADME, organism-based; set-up: time infinity, dose 1 mg/kg, route intravenous; conditions: plasma
Mus musculus [14] = species on record: Mus musculus; assay: Toxicity in Swiss mouse assessed as effect on neuro-muscular coordination after 30 to 180 mins by rotarod test; format: organism-based; conditions: in vivo
[15] = Terminal half life in Swiss albino mouse at 1 mg/kg, iv; format: ADME, organism-based; set-up: dose 1 mg/kg, route intravenous; conditions: in vivo, read-out: beta t1/2 (converted)
Mus musculus [16] = assay: Antidepressant activity in Swiss mouse assessed as reduction of immobility time at 1 mg/kg, ip after 30 mins by forced swimming test relative to vehicle-treated control; format: functional; set-up: scale not given: the % may be the effect or the level left; conditions: route intraperitoneal
[17] = AUC (0 to infinity) in Swiss albino mouse at 10 mg/kg, ip; format: ADME, organism-based; set-up: time infinity, dose 10 mg/kg, route intraperitoneal; conditions: plasma
[18] = Cmax in Swiss albino mouse at 1 mg/kg, iv; format: ADME, organism-based; set-up: dose 1 mg/kg, route intravenous; conditions: in vivo
[19] = Volume of distribution in Swiss albino mouse at 1 mg/kg, iv; format: ADME, organism-based; set-up: dose 1 mg/kg, route intravenous; conditions: in vivo
[20] = Oral bioavailability in rat; format: ADME, organism-based; conditions: in vivo

COc1ccc(-c2cc3cc(CBr)cc(C(C)(C)C)c3oc2=O)cc1OC
Activity (Mus musculus [1]): 55%

COc1ccc(-c2cc3cc(CNc4ccc(C)cc4)cc(C)c3oc2=O)cc1
bioavailability [2]: 73.4% | CL/F [3]: 47.2 mL/min/kg | half-life [4]: 7.57 h | Cmax [5]: 256 ng/mL | Activity (Mus musculus [1]): 80% | Activity (Mus musculus [6]): 17% | Activity (Mus musculus [7]): 53% | Activity (Mus musculus [8]): Non-toxic | Activity (Mus musculus [9]): Non-toxic | clearance [10]: 67.3 mL/min/kg | Tmax [11]: 2 h | Vd (Mus musculus [12]): 30.45 L/kg | AUC(0-inf) [13]: 316 ng·h/mL | Activity (Mus musculus [14]): Non-toxic | half-life [15]: 3.21 h | Activity (Mus musculus [16]): 75% | AUC(0-inf) [17]: 2330 ng·h/mL | Cmax [18]: 105 ng/mL | Vd [19]: 18 L/kg

COc1ccc(-c2cc3cc(CO)cc(C(C)(C)C)c3oc2=O)cc1OC
Activity (Mus musculus [1]): 58%

COc1cc(-c2cc3cc(CBr)cc(C)c3oc2=O)cc(OC)c1OC
Activity (Mus musculus [1]): 73% | Activity (Mus musculus [6]): 16% | Activity (Mus musculus [7]): 49% | Activity (Mus musculus [8]): Non-toxic | Activity (Mus musculus [9]): Non-toxic | Activity (Mus musculus [14]): Non-toxic | Activity (Mus musculus [16]): 71%

COc1ccc(-c2cc3cc(CBr)cc(C)c3oc2=O)cc1OC
Activity (Mus musculus [1]): 61%

CNCCC(Oc1ccc(C(F)(F)F)cc1)c1ccccc1 (stereo not given) [FLUOXETINE]
bioavailability [20]: 60%
